Results as given in patent US20140128412A1, “COMBINATION OF AN ANT[…] AN ANTI-INFLAMMATORY AGENT” (priority 2011, published 2014).

What was measured:
Type in all cases: in vivo, human
[1] = tested on: plasma IL-1β; assay: Plasma IL-1β level by ELISA in the double-blind clinical trial; conditions: schizophrenic patients, FIG. 3A
Description: (§1) One hundred and thirty-seven Han Chinese schizophrenic patients and 67 Han Chinese healthy controls (age range: 20-59 years old) were recruited from the Department of Psychiatry at National Cheng Kung University Hospital and the National Defense Medical Center. All patients were screened for being used. The Chinese version of the SADS-L, which has good reliability and validity, was used to screen all participants for psychiatric conditions and whether they fit the DSM-IV diagnostic criteria for schizophrenia without any comorbidity. […]
(§2) Ten milliliters of whole blood was drawn and collected from each participant's antecubital vein at the screening visit (V), 0, 1, 2, 4, 6, 8, and 11 weeks. […] Plasma cytokine, CRP and BDNF concentrations were quantified using enzyme-linked immunosorbent assays (ELISA). A kit (Quantikine Human Cytokine kit; R&D Systems) and an ELISA reader (SpectraMax-M2; Molecular Devices) ELISA reader were used to analysis plasma IL-1β, TNF-α, CRP, and BDNF levels. […]

[2] = tested on: plasma TNF-α; assay: Plasma TNF-α level by ELISA in the double-blind clinical trial; conditions: schizophrenic patients, FIG. 3B
Description: (§3) One hundred and thirty-seven Han Chinese schizophrenic patients and 67 Han Chinese healthy controls (age range: 20-59 years old) were recruited from the Department of Psychiatry at National Cheng Kung University Hospital and the National Defense Medical Center. All patients were screened for being used. The Chinese version of the SADS-L, which has good reliability and validity, was used to screen all participants for psychiatric conditions and whether they fit the DSM-IV diagnostic criteria for schizophrenia without any comorbidity. Exclusion conditions were: 1) pregnant or nursing women; 2) women of childbearing potential not using adequate contraception as per investigator judgment or not willing to use contraception for the duration of study; 3) patients who had used dextromethorphan, other selective cyclooxygenase 2 inhibitors, or other anti-inflammatory medication within 1 week before the first dose of double-blind medication; 4) a major mental illness other than schizophrenia, including alcoholism and illegal substance use disorder; 5) a clinically significant medical condition, e.g., cardiac, hepatic, or renal disease with current evidence of poor control; 6) patient who had undergone electroconvulsive therapy within 4 weeks before the first dose of double-blind medication; 7) SGOT, SGPT, BUN, and creatinine levels/an SGOT, SGPT, BUN, or creatinine level greater than 3-fold the upper limit of normal. All the healthy controls were free of major and minor mental illness. All research involving humans was reviewed and approved by the National Chung Kung University and National Defense Medical Center Institutional Review Boards before the study began.
This study was a double-blind, stratified, randomized, parallel-group, two-center clinical trial. The treatment was risperidone plus a double-blind add-on of randomly assigned DM or a placebo. Participants began the study immediately after they had been screened for eligibility (screening visit: V). The pre-treatment study phase consisted of a 7-day (V to 0 week) antipsychotic switch-over period for patients (patient hospitalized) who were taking oral antipsychotic medication other than risperidone alone at the screening, or who had been using depot medication for an entire cycle before the screening. […]
as §2

[3] = tested on: plasma CRP; assay: Plasma CRP level by ELISA in the double-blind clinical trial; conditions: schizophrenic patients, FIG. 3C
Description: as §3, with “All research involving humans was reviewed and approved by the National Chung Kung University and National Defense Medical Center Institutional Review Boards before the study began.” left out
as §2

[4] = tested on: plasma BDNF; assay: Plasma BDNF level by ELISA in the double-blind clinical trial; conditions: schizophrenic patients, after 11 weeks of treatment; FIG. 3D
Description: as §1, §2

SMILES: Cc1nc2n(c(=O)c1CCN1CCC(c3noc4cc(F)ccc34)CC1)CCCC2 [Risp only, risperidone]
- change in plasma IL-1β levels ([1]; after 11 weeks of treatment, risperidone 1-6 mg/day, DM 60 mg/day): significant decrease
- time after which plasma IL-1β level fell [1]: 8 weeks
- plasma TNF-α levels at the end of the study ([2]; end of study (11 weeks) vs visit): significantly higher
- course of plasma TNF-α levels during the study ([2]; visit to 11 weeks): rose significantly
- time after which plasma TNF-α levels rose significantly [2]: 4 weeks
- time of peak plasma TNF-α level [2]: 6 weeks
- plasma CRP level at start (first value of 'from ... to') ([3]; before add-on treatment, mean±SEM): 2576.0±484.0
- plasma CRP level at end (second value of 'from ... to') ([3]; end of treatment, mean±SEM): 1946.0±369.6
- change in plasma CRP levels ([3]; over the study): tended to decrease but were not significantly different
- change in plasma BDNF levels [4]: did not change
